Measurements from PMC7435983, “Galantamine-Curcumin Hybrids as Dual-Site Binding Acetylcholinesterase Inhibitors” (Molecules, 2020).
Read-outs that look alike come from different tables or passages of the source. Marks after values point to notes of the source that are not given here.

How the values were obtained:
[1] = target: eeAChE (Electrophorus electricus AChE) (Electrophorus electricus, UniProt O42275); assay: biochemical
Experimental: As the docking studies were performed on rhAChE, while for the in vitro measurements was used AChE from electric eel (eeAChE), it was reasonably to question their relevance.
AChE activity was assayed as described by Ellman et al., with some modifications. […] The mixtures were incubated for 30 min at room temperature before the addition of 30 μL of the substrate solution (15 μL […], 15 μL 0.6 mM ATCI in buffer, pH 7.6).

Neuro-2A cells [2] = assay: Neurotoxicity test, MTT-dye reduction assay; format: cell-based, Murine; settings: Mus musculus, N2a, 72-h incubation
Experimental: The neurotoxicity of the GAL-CU hybrids was tested on Neuro-2A cells, as described in Materials and methods. […] Only five of the hybrids were less toxic than CU. One of them, compound 8b, is among the best-scored compounds; two of them, compounds 4e and 4f, are from the middle GoldScore range; and two of them, compounds 4a and 4b, belong to the low GoldScore range.
Murine neuroblastoma Neuro-2A cells (German collection DSMZ, Braunschweig, Germany) were cultivated under standard conditions: complete medium (90% DMEM, 10% heat-inactivated FBS, and non-essential amino acids); 37 °C and 5% CO2 in fully humidified atmosphere. The cell line was kept in the logarithmic growth phase by splitting 1:4 once a week using trypsin/EDTA. About 30% of the cells grew like neuronal cells. For the experimental evaluation of the cytotoxicity Neuro-2A, cells were plated in 96-well flat-bottomed cell culture plates at the recommended density of 1 × 10^6 cells/25cm^2. After 24 h, the cells were treated with various concentrations of the investigational compounds, and after 72-h incubation, an MTT-dye reduction assay was performed. Briefly, at the end of incubation, an MTT stock solution (10mg/mL in PBS) was added (0.01 mL/well). Plates were further incubated at 37 °C for 4 h. Next, the formazan crystals were dissolved by the addition of 0.110 mL/well 5% formic acid in 2-propanol (v/v). Absorption was measured at 580nm wavelength on an automated ELISA reader Labexim LMR1. At least six wells per concentration were used, and data were processed using the GraphPad Prism 5.0 software 2.0 (San Diego, CA, USA).

[3] = Prediction of PK parameters by QSPR models
From the text: The key PK parameters were predicted by quantitative […] (QSPRs) models derived previously. Three PK parameters were modelled: the steady state volume of distribution (VD^ss), free fraction of drug in plasma (fu) and unbound clearance (CLu). […]

Neuro-2A cells [4] = settings: cited from earlier work
[5] = cited from earlier work

eeAChE (Electrophorus electricus AChE), sequence (O42275 24-633): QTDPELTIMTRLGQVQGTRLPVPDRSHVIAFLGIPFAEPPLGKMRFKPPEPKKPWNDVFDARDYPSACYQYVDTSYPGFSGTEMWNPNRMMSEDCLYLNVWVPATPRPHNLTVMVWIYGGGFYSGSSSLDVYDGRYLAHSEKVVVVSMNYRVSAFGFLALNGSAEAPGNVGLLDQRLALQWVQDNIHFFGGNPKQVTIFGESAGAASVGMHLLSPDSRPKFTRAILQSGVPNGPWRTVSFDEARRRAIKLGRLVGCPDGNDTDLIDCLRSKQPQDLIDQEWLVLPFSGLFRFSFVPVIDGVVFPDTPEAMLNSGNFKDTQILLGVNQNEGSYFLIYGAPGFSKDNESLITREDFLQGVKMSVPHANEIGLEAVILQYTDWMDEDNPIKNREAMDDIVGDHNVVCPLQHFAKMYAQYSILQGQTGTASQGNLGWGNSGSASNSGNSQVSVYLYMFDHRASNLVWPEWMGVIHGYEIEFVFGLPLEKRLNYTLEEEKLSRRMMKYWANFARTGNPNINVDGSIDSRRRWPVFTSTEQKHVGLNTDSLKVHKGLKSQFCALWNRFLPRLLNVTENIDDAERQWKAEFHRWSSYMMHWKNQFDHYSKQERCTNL

Structure (SMILES): COc1ccc2c3c1O[C@H]1C[C@@H](O)C=C[C@@]31CCN(CCCCC(=O)/C=C/c1ccccc1)C2 [4a]
- IC50 [1]: 0.046 µM
- Times More Active Than GAL [1]: 75
- IC50 (Neuro-2A cells [2]): 30.7 µM

Structure (SMILES): COc1ccc(/C=C/C(=O)CCCCN2CC[C@@]34C=C[C@H](O)C[C@@H]3Oc3c(OC)ccc(c34)C2)cc1 [4b]
- IC50 [1]: 0.02 µM
- Times More Active Than GAL [1]: 186
- IC50 (Neuro-2A cells [2]): 52.5 µM

Structure (SMILES): COc1cccc(/C=C/C(=O)CCCCN2CC[C@@]34C=C[C@H](O)C[C@@H]3Oc3c(OC)ccc(c34)C2)c1 [4c]
- IC50 (Neuro-2A cells [2]): 24.1 µM

Structure (SMILES): COc1ccc2c3c1O[C@H]1C[C@@H](O)C=C[C@@]31CCN(CCCCC(=O)/C=C/c1ccc3c(c1)OCO3)C2 [4e]
- IC50 [1]: 0.036 µM
- Times More Active Than GAL [1]: 98
- IC50 (Neuro-2A cells [2]): 42.9 µM

Structure (SMILES): COc1ccc2c3c1O[C@H]1C[C@@H](O)C=C[C@@]31CCN(CCCCC(=O)/C=C/c1ccc(C)cc1)C2 [4f]
- IC50 [1]: 0.033 µM
- Times More Active Than GAL [1]: 110
- IC50 (Neuro-2A cells [2]): 34.4 µM

Structure (SMILES): COc1ccc2c3c1O[C@H]1C[C@@H](O)C=C[C@@]31CCN(CCCCC(=O)/C=C/c1cccc(C)c1)C2 [4g]
- IC50 (Neuro-2A cells [2]): 23.7 µM

Structure (SMILES): COc1ccc2c3c1O[C@H]1C[C@@H](O)C=C[C@@]31CCN(CCCCC(=O)/C=C/c1ccc(C)c(C)c1)C2 [4h]
- IC50 (Neuro-2A cells [2]): 21.9 µM

Structure (SMILES): COc1ccc2c3c1O[C@H]1C[C@@H](O)C=C[C@@]31CCN(Cc1cccc(/C=C/C(=O)c3ccccc3)c1)C2 [6a]
- IC50 (Neuro-2A cells [2]): 12.1 µM

Structure (SMILES): COc1ccc(C(=O)/C=C/c2cccc(CN3CC[C@@]45C=C[C@H](O)C[C@@H]4Oc4c(OC)ccc(c45)C3)c2)cc1 [6b]
- IC50 (Neuro-2A cells [2]): 7.91 µM

Structure (SMILES): COc1ccc(/C=C/C(=O)c2cccc(CN3CC[C@@]45C=C[C@H](O)C[C@@H]4Oc4c(OC)ccc(c45)C3)c2)cc1 [8b]
- IC50 [1]: 0.086 µM
- Times More Active Than GAL [1]: 41
- IC50 (Neuro-2A cells [2]): 28.9 µM

Structure (SMILES): COc1cccc(/C=C/C(=O)c2cccc(CN3CC[C@@]45C=C[C@H](O)C[C@@H]4Oc4c(OC)ccc(c45)C3)c2)c1 [8c]
- IC50 (Neuro-2A cells [2]): 25.6 µM

Structure (SMILES): COc1ccc2c3c1O[C@H]1C[C@@H](O)C=C[C@@]31CCN(Cc1cccc(C(=O)/C=C/c3ccc(C)cc3)c1)C2 [8f]
- IC50 (Neuro-2A cells [2]): 24.3 µM

Structure (SMILES): COc1ccc2c3c1O[C@H]1C[C@@H](O)C=C[C@@]31CCN(Cc1cccc(C(=O)/C=C/c3cccc(C)c3)c1)C2 [8g]
- IC50 (Neuro-2A cells [2]): 17.8 µM

Structure (SMILES): COc1ccc2c3c1O[C@H]1C[C@@H](O)C=C[C@@]31CCN(Cc1cccc(C(=O)/C=C/c3ccc(C)c(C)c3)c1)C2 [8h]
- IC50 (Neuro-2A cells [2]): 25 µM

Structure (SMILES): COc1cc(/C=C/C(=O)CC(=O)/C=C/c2ccc(O)c(OC)c2)ccc1O [CU, (1E,6E)-1,7-Bis(4-hydroxy-3-methoxyphenyl)hepta-1,6-diene-3,5-dione, reference compound]
- IC50 (Neuro-2A cells [2]): 26.3 µM

Structure (SMILES): COc1ccc2c3c1O[C@H]1C[C@@H](O)C=C[C@@]31CCN(C)C2 [GAL, Galantamine]
- half-life [3]: 4.74 h
- IC50 (Neuro-2A cells [4]): > 50 µM
- VDss [5]: 2.30 ^a L/kg
- fu ([5]; free fraction of drug in plasma): 0.83 ^a
- CL ([5]; total clearance): 0.336 ^a L/h/kg
